Values of other authors as cited in patent US20100173381A1, “CRYSTAL STRUCTURES OF HIV-1 PROTEASE INHIBITORS BOUND TO HIV-1 PROTEASE” (UNIVERSITY OF MASSACHUSETTS, priority 2006, published 2010).

Tests used:
drug-resistant HIV-1 = details: versus clinical protease inhibitors APV, LPV, ATV, SQV, IDV, NFV
HIV-1 protease mutants = details: M46I, T80I, P81S
[1] = tested on: the virus in cell cultures
[2] = humans
HIV-1 protease = HIV-1 protease (Human immunodeficiency virus type 1 group M subtype B, UniProt P04585)

Compound	cross-resistance profile (drug-resistant HIV-1)	potency against drug-resistant proteases (drug-resistant proteases)	resistance of quadruple-viral mutant (HIV-1 protease mutants; K45R)	resistance of single-, double- or triple-viral mutants (HIV-1 protease mutants; mutants from K45R)	potency against the virus in cell cultures [1]	oral bioavailability [2]	inhibitory properties (HIV-1 protease)
COC(=O)N[C@H](C(=O)NCCCC[C@@H](CO)N(CC(C)C)S(=O)(=O)c1ccc(N)cc1)C(c1ccccc1)c1ccccc1 [PL-100]	favorable cross-resistance profile	highly potent	only mild resistance	did not show resistance	–	–	–
Nc1cccc(CN2C(=O)N(Cc3cccc(N)c3)[C@H](Cc3ccccc3)[C@H](O)[C@@H](O)[C@H]2Cc2ccccc2)c1 [DMP-450]	–	–	–	–	highly potent	orally bioavailable	excellent inhibitory properties
